The results in this text go back to patent publication US20240417359A1, “PRECURSORS OF PHENOLIC FRAGRANT COMPOUNDS” (GIVAUDAN SA, priority 2021, published 2024).

A short description of experiment [1]: Odour description on paper blotter. To be noted: 1% solution in EtOH on paper blotter, 24 h.
A short description of experiment [2]: Application in shampoo base: sensory evaluation of washed hair swatches by expert panel. Also noted: species or system human. The following applies: Table 4; for odour intensity, wet: 0.2% by weight in shampoo base, wet hair swatch, scale 0 (odourless) to 5 (extremely strong); for odour intensity, 1 day: dried hair swatch 1 day; for odour intensity, 1 day / odour intensity, 3 days: scale 0 to 5; for odour intensity, 3 days: dried hair swatch 3 days. As to the method:
Odour-neutral human hair swatches were wetted with warm tap water and lathered delicately with 2 mL of the above hair shampoo samples for 30 sec by hand wearing gloves. The lathered hair swatches were left in a plastic bowl for 2 min, then rinsed under running tap water for 20 sec. After removing excess water by squeezing the hair swatches between two fingers, they were left to dry in open air. The wet and dried hair swatches (1 and 3 days) were assessed by a panel of 4-6 experts with regard to odour intensity and quality. The odour intensity was recorded on an intensity scale of 0 (odourless) to 5 (extremely strong).

Experiment [3] in a line: Washtest with liquid detergent and sensory evaluation of fabric by expert panel. To be noted: Table 3; for odour intensity, 1 day: dry fabric 1 day; for odour intensity, 1 day / odour intensity, 4 days / odour intensity, wet: scale 0 to 5; for odour intensity, 4 days: dry fabric 4 days; for odour intensity, wet / odour on dry fabric: heavy duty liquid detergent washtest; for odour intensity, wet: wet fabric. As to the method: The wet and line-dried fabric (1 and 4 days) was assessed by a panel of 4-6 experts with regard to odour intensity and quality. The odour intensity was recorded on an intensity scale of 0 (odourless) to 5 (extremely strong).
The odour intensity was recorded on an intensity scale of 0 (odorless) to 5 (extremely strong).
Heavy duty liquid detergent samples were prepared and used in washtests and subsequent sensory evaluation of the washed and dried fabric as described in Example 60a and c. The odour intensity was recorded on an intensity scale of 0 (odourless) to 5 (extremely strong).

Turning to `COc1ccc(CCC(C)=CCCOc2ccc(CCC(C)=O)cc2)cc1` [Example 55, 4-(4-((6-(4-methoxyphenyl)-4-methylhex-3-en-1-yl)oxy)phenyl)butan-2-one], the Odour description entry in experiment [1] is given as “sweet, fruity, raspberry”. Further, in experiment [2], the “odour intensity, wet” value amounted to 1.1; the “odour intensity, 1 day” value was determined as 2.8; the “odour intensity, 3 days” value came to 3.0. For `C=CCC(CCCCCCCCC)Oc1ccc(CCC(C)=O)cc1` (stereo not drawn) [Example 36, 4-(4-(tridec-1-en-4-yloxy)phenyl)butan-2-one], the Odour description result in experiment [1] was “fruity, juicy, raspberry, aldehydic, green, metallic”. Further, in experiment [2], the “odour intensity, wet” value came to 2.3; the “odour intensity, 1 day” value is given as 1.9; the “odour intensity, 3 days” value is listed as 1.6.

For `C=CCC(CC/C=C\CC)Oc1ccc(C=O)cc1OCC` (stereo not drawn) [Example 12, (Z)-4-(deca-1,7-dien-4-yloxy)-3-ethoxybenzaldehyde], the Odour description result in experiment [1] is on record as “powdery (vanilla)”. In experiment [3], the “odour intensity, 1 day” value is listed as 3.0; the “odour intensity, 4 days” value is reported as 3.7; the “odour intensity, wet” value was 0.4. Consider `C=CCC(CCCCCCCCCC)Oc1ccc(C=O)cc1OC` (stereo not drawn) [Example 38, 3-methoxy-4-(tetradec-1-en-4-yloxy)benzaldehyde], for which, in experiment [1], the Odour description result is listed as “powdery, vanilla, creamy, aldehydic, mandarin, madeleine”. Further, in experiment [3], the “odour intensity, 1 day” value was found to be 3.0; the “odour intensity, 4 days” value turned out to be 3.2; the “odour on dry fabric” value is recorded as “madeleine”; the “odour intensity, wet” value is on record as 2.2. Regarding `CCCCCCCCC(C)=CCCOc1ccc(C=O)cc1OCC` [Example 90, 3-ethoxy-4-((4-methyldodec-3-en-1-yl)oxy)benzaldehyde], the Odour description entry in experiment [1] is “powdery, vanilla, creamy, slightly green, sesame seed, sharp, technical”. Besides, in experiment [2], the “odour intensity, wet” value stood at 1.1; the “odour intensity, 1 day” value came to 2.7; the “odour intensity, 3 days” value is reported as 2.9. In the case of `CCOc1cc(C=O)ccc1OCCC=CC(C)CCC=C(C)C` (stereo not drawn) [Example 84, 4-((5,9-dimethyldeca-3,8-dien-1-yl)oxy)-3-ethoxybenzaldehyde], the Odour description result in experiment [1] is “powdery, vanilla, chocolate milk, slightly fresh, fatty, watery, melon”. In experiment [2], the “odour intensity, wet” value worked out at 0.7; the “odour intensity, 1 day” value worked out at 2.7; the “odour intensity, 3 days” value stood at 3.6.

For the compound `C=CCC(CC/C=C\CC)Oc1cc(C)c(C(=O)OC)c(O)c1C` (stereo not drawn) [Example 69, methyl (Z)-4-(deca-1,7-dien-4-yloxy)-2-hydroxy-3,6-dimethylbenzoate], the Odour description result in experiment [1] was “powdery green marine (evernyl)”. In experiment [3], the “odour intensity, 1 day” value is recorded as 1.9; the “odour intensity, 4 days” value is on record as 2.5; the “odour on dry fabric” value is recorded as “mossy, woody”; the “odour intensity, wet” value amounted to 0.5. For `C=CCC(Oc1cc(C)c(C(=O)OC)c(O)c1C)C(C)=CCC` (stereo not drawn) [Example 7, methyl 2-hydroxy-3,6-dimethyl-4-((5-methylocta-1,5-dien-4-yl)oxy)benzoate], the Odour description result in experiment [1] is recorded as “powdery (evernyl)”. Take `C=CCC(CCC=CCC)Oc1ccc(C=O)cc1OCC` (stereo not drawn) [Example 78, 4-(deca-1,7-dien-4-yloxy)-3-ethoxybenzaldehyde]: the Odour description entry in experiment [1] is “powdery, vanilla”. On to `CCCCCCC(CC=C(C)C)Oc1ccc(C=O)cc1OCC` (stereo not drawn) [Example 4, 3-ethoxy-4-((2-methylundec-2-en-5-yl)oxy)benzaldehyde], for which the Odour description result in experiment [1] is “vanilla (powdery, creamy) dry (dough)”. The same measure, in the same setting: to `C=CCC(CCCCCC)Oc1cc(C)c(C(=O)OC)c(O)c1C` (stereo not drawn) [Example 24, methyl 4-(dec-1-en-4-yloxy)-2-hydroxy-3,6-dimethylbenzoate] belongs “powdery (mossy, evernyl)”.

As for `CC(=O)CCc1ccc(OCCC=C(C)CCc2ccccc2)cc1` [Example 52, 4-(4-((4-methyl-6-phenylhex-3-en-1-yl)oxy)phenyl)butan-2-one], the Odour description entry in experiment [1] is given as “sweet, crystal sugar, fruity, raspberry”. In addition, in experiment [3], the “odour intensity, 1 day” value is given as 2.9; the “odour intensity, 4 days” value is 3.3; the “odour on dry fabric” value is “raspberry, sweet”; the “odour intensity, wet” value is listed as 1.6. Consider `COC(=O)c1c(C)cc(OCC/C=C(\C)CCC=C(C)C)c(C)c1O` [Example 62, methyl (E)-4-((4,8-dimethylnona-3,7-dien-1-yl)oxy)-2-hydroxy-3,6-dimethylbenzoate], for which, in experiment [1], the Odour description result is given as “powdery (mossy)”. In the case of `C=CCc1ccc(OC(CC=C)CCCCCCCCC)c(OC)c1` (stereo not drawn) [4-allyl-2-methoxy-1-(tridec-1-en-4-yloxy)benzene], in experiment [3], the “odour intensity, 1 day” value was determined as 2.1; the “odour intensity, 4 days” value is recorded as 2.7; the “odour intensity, wet” value is recorded as 2.1. With `CC/C=C\CCCC/C=C/CCOc1cc(C)c(C(=O)OC)c(O)c1C` [Example 77, methyl 4-(((3E,9Z)-dodeca-3,9-dien-1-yl)oxy)-2-hydroxy-3,6-dimethylbenzoate], the Odour description entry in experiment [1] is given as “powdery, oakmoss”. Still for that read-out and setting: with `CCCCCCC(C)=CCCOc1ccc(C=O)cc1OCC` [Example 89, 3-ethoxy-4-((4-methyldec-3-en-1-yl)oxy)benzaldehyde] the entry was “powdery, vanilla, creamy”. On the same count and under the same terms, with `CCOc1cc(C=O)ccc1OCC/C=C(\C)c1ccc2ccccc2c1` [Example 51, (E)-3-ethoxy-4-((4-(naphthalen-2-yl)pent-3-en-1-yl)oxy)benzaldehyde] the entry was “powdery, vanilla, ice cream, floral, neroli, orange flower, baby cologne, madeleine, fougassette”; with `CCOc1cc(C=O)ccc1OCCC=C(C)CCc1ccc(OC)cc1` [Example 54, 3-ethoxy-4-((6-(4-methoxyphenyl)-4-methylhex-3-en-1-yl)oxy)benzaldehyde], “powdery, vanilla”. As for `CCOc1cc(C=O)ccc1OCCC=CCCc1ccc(CC(C)C)cc1` [Example 86, 3-ethoxy-4-((6-(4-isobutylphenyl)hex-3-en-1-yl)oxy)benzaldehyde], in experiment [1], the Odour description result was “powdery, vanilla, creamy, floral, muguet”. Turning to `C=CCC(CCCCCCCCC)Oc1ccc(C=O)cc1OCC` (stereo not drawn) [Example 91, 3-ethoxy-4-(tridec-1-en-4-yloxy)benzaldehyde], the Odour description entry in experiment [1] is listed as “powdery, vanilla, aldehydic, fruity, mandarin”.

For the compound `CC/C=C/CC(CCC)Oc1ccc(C=O)cc1OCC` (stereo not drawn) [Example 19, (E)-3-ethoxy-4-(non-6-en-4-yloxy)benzaldehyde], in experiment [1], the Odour description result is on record as “vanilla powdery creamy”. Still for that read-out and setting: to `C=C(C)[C@@H]1CC[C@@H](C)C[C@@H]1Oc1ccc(CCC(C)=O)cc1` [Example 14, 4-(4-(((1S,2S,5R)-5-methyl-2-(prop-1-en-2-yl)cyclohexyl)oxy)phenyl)butan-2-one] belongs “sweet fruity (raspberry)”; to `CCC(=O)c1ccccc1OCCC=C(C)CCc1ccccc1` [Example 57, 1-(2-((4-methyl-6-phenylhex-3-en-1-yl)oxy)phenyl)propan-1-one], “wintergreen, salicylate, slightly powdery, vanilla”; to `COC(=O)c1c(C)cc(OCCC=C(C)CCC=C(C)CCC=C(C)C)c(C)c1O` [Example 66, methyl 2-hydroxy-3,6-dimethyl-4-((4,8,12-trimethyltrideca-3,7,11-trien-1-yl)oxy)benzoate], “powdery mossy (evernyl)”. Same read-out and setting: to `CC/C=C\C/C=C\CCOc1ccccc1OC` [Example 32, 1-methoxy-2-(((3Z,6Z)-nona-3,6-dien-1-yl)oxy)benzene] belongs “green, leaf aldehyde”; to `CCOc1cc(C=O)ccc1OCCC=C(C)c1ccc(OC)cc1` [Example 49, 3-ethoxy-4-((4-(4-methoxyphenyl)pent-3-en-1-yl)oxy)benzaldehyde], “sweet, powdery, vanilla, ice cream, soft anisic, heliotropine, anethiol”; to `CCC=CCC(CCCCCCCCC)Oc1ccc(CCC(C)=O)cc1` (stereo not drawn) [Example 39, 4-(4-(pentadec-3-en-6-yloxy)phenyl)butan-2-one], “raspberry, mandarin, citrus, aldehydic, fresh”.

Take `C=CCC(Oc1ccc(C=CC)cc1OC)C(C)=CCC` (stereo not drawn) [Example 6, 2-methoxy-1-((5-methylocta-1,5-dien-4-yl)oxy)-4-(prop-1-en-1-yl)benzene]: the Odour description entry in experiment [1] is on record as “woody (smokey, cedarwood, pyrogravure)”. As to `C=CCC(Oc1ccc(CCC(C)=O)cc1)C(C)=CCC` (stereo not drawn) [Example 5, 4-(4-((5-methylocta-1,5-dien-4-yl)oxy)phenyl)butan-2-one], in experiment [1], the Odour description result was “fruity (powdery, sweet, raspberry)”. Same read-out and setting: to `COC(=O)c1ccccc1OCCC=C(C)CCc1ccccc1` [Example 56, methyl 2-((4-methyl-6-phenylhex-3-en-1-yl)oxy)benzoate] belongs “wintergreen, salicylate, slightly powdery, vanilla”. Take `CCOc1cc(C=O)ccc1OCCC=C(C)CCc1ccc2c(c1)OCO2` [Example 79, 4-((6-(benzo[d][1,3]dioxol-5-yl)-4-methylhex-3-en-1-yl)oxy)-3-ethoxybenzaldehyde]: the Odour description result in experiment [1] is reported as “sweet powdery, creamy, vanilla, vanitrope”.
